According to article PMC11200585, “Prospects for Prostate Cancer Chemotherapy: Cytotoxic Evaluation and Mechanistic Insights of Quinolinequinones with ADME/PK Profile” (Biomedicines, 2024):

Assays:
Format in all cases: cell-based, human
HS 578T = experiment: NCI-60 five-dose assay (breast cancer); conditions: 48 h, SRB
HT29 = experiment: NCI-60 five-dose assay (colon cancer); conditions: SRB
RXF 393 = experiment: NCI-60 five-dose assay (renal cancer); conditions: 48 h, SRB
SF-268 = experiment: NCI-60 five-dose assay (CNS cancer); conditions: 48 h, SRB
UACC-257 [1] = experiment: NCI-60 five-dose assay (melanoma); conditions: 48 h, SRB
PC-3 = experiment: NCI-60 five-dose assay (prostate cancer); conditions: 48 h, SRB
RPMI-8226 = experiment: NCI-60 five-dose assay (leukemia); conditions: 48 h, SRB
U251 = experiment: NCI-60 five-dose assay (CNS cancer); conditions: SRB
HCT-15 = experiment: NCI-60 five-dose assay (colon cancer); conditions: 48 h, SRB
KM12 = experiment: NCI-60 five-dose assay (colon cancer); conditions: 48 h, SRB
MDA-MB-468 = experiment: NCI-60 five-dose assay (breast cancer); conditions: 48 h, SRB
UO-31 = experiment: NCI-60 five-dose assay (renal cancer); conditions: 48 h, SRB
SK-MEL-5 [2] = experiment: NCI-60 five-dose assay (melanoma); conditions: 48 h, SRB
BT-549 = experiment: NCI-60 five-dose assay (breast cancer); conditions: 48 h, SRB
CAKI-1 = experiment: NCI-60 five-dose assay (renal cancer); conditions: 48 h, SRB
SNB-75 = experiment: NCI-60 five-dose assay (CNS cancer); conditions: 48 h, SRB
SNB-19 = experiment: NCI-60 five-dose assay (CNS cancer); conditions: 48 h, SRB
TK-10 = experiment: NCI-60 five-dose assay (renal cancer); conditions: 48 h, SRB
MALME-3M = experiment: NCI-60 one-dose screen (melanoma); conditions: 10 µM single dose, 48 h
SK-MEL-28 = experiment: NCI-60 one-dose screen (melanoma); conditions: 10 µM single dose
UACC-257 [3] = experiment: NCI-60 one-dose screen (melanoma); conditions: 10 µM single dose, 48 h
SK-MEL-5 [4] = experiment: NCI-60 one-dose screen (melanoma); conditions: 10 µM single dose, 48 h
UACC-62 = experiment: NCI-60 one-dose screen (melanoma); conditions: 10 µM single dose, 48 h
MDA-MB-435 = experiment: NCI-60 one-dose screen (melanoma); conditions: 10 µM single dose, 48 h
LOX IMVI = experiment: NCI-60 one-dose screen (melanoma); conditions: 10 µM single dose, 48 h
SK-MEL-2 = experiment: NCI-60 one-dose screen (melanoma); conditions: 10 µM single dose, 48 h
NCI/ADR-RES = experiment: NCI-60 one-dose screen (ovarian cancer); conditions: 10 µM single dose, 48 h
IGROV1 [5] = experiment: NCI-60 one-dose screen (ovarian cancer); conditions: 10 µM single dose, 48 h
OVCAR-5 = experiment: NCI-60 one-dose screen (ovarian cancer); conditions: 10 µM single dose, 48 h
OVCAR-8 [6] = experiment: NCI-60 one-dose screen (ovarian cancer); conditions: 10 µM single dose
OVCAR-4 = experiment: NCI-60 one-dose screen (ovarian cancer); conditions: 10 µM single dose, 48 h
SK-OV-3 = experiment: NCI-60 one-dose screen (ovarian cancer); conditions: 10 µM single dose, 48 h
OVCAR-8 [7] = experiment: NCI-60 five-dose assay (ovarian cancer); conditions: 48 h, SRB
HOP-92 = experiment: NCI-60 five-dose assay (non-small cell lung cancer); conditions: 48 h, SRB
IGROV1 [8] = experiment: NCI-60 five-dose assay (ovarian cancer); conditions: SRB
SF-295 = experiment: NCI-60 five-dose assay (CNS cancer); conditions: 48 h, SRB
[9] = Homo sapiens, read-out: LC50 (the source's name)

Structure (SMILES): CCOc1ccc(NC2=C(Cl)C(=O)c3nc(C)ccc3C2=O)cc1 [AQQ3]
- TGI (HS 578T): 5820 nM
- GI50 (HS 578T; Homo sapiens): 2220 nM
- CC50 (HS 578T; [9]): > 100000 nM
- TGI (HT29; 48 h): 7080 nM
- GI50 (HT29; Homo sapiens, HT-29, 48 h): 2870 nM
- LC50 (concentration killing 50% of cells) (HT29; Homo sapiens, HT-29, 48 h): 62500 nM
- TGI (RXF 393): 2960 nM
- GI50 (RXF 393; Homo sapiens): 1570 nM
- LC50 (RXF 393; Homo sapiens): 5610 nM
- TGI (SF-268): 3090 nM
- GI50 (SF-268; Homo sapiens): 1550 nM
- LC50 (concentration killing 50% of cells) (SF-268; Homo sapiens): 6140 nM
- TGI (UACC-257 [1]): 2780 nM
- GI50 (UACC-257 [1]; Homo sapiens): 1390 nM
- LC50 (NCI-60 lethal concentration, 50% cell kill) (UACC-257 [1]; Homo sapiens): 5580 nM
- TGI (PC-3): 2770 nM
- GI50 (PC-3; Homo sapiens): 1290 nM
- CC50 (PC-3; [9]): 5930 nM
- TGI (RPMI-8226): 5330 nM
- GI50 (RPMI-8226; Homo sapiens): 1670 nM
- CC50 (RPMI-8226; [9]): > 100000 nM
- TGI (U251; 48 h): 3540 nM
- GI50 (U251; Homo sapiens, U-251, 48 h): 1800 nM
- LC50 (concentration killing 50% of cells) (U251; Homo sapiens, U-251, 48 h): 6940 nM
- TGI (HCT-15): 2940 nM
- GI50 (HCT-15; Homo sapiens): 1300 nM
- CC50 (HCT-15; [9]): 6660 nM
- TGI (KM12): 3070 nM
- GI50 (KM12; Homo sapiens): 1440 nM
- CC50 (KM12; [9]): 6510 nM
- TGI (MDA-MB-468): 2920 nM
- GI50 (MDA-MB-468; Homo sapiens): 1490 nM
- LC50 (MDA-MB-468; Homo sapiens): 5750 nM
- TGI (UO-31): 2750 nM
- GI50 (UO-31; Homo sapiens): 1430 nM
- LC50 (lethal concentration 50%) (UO-31; Homo sapiens): 5280 nM
- TGI (SK-MEL-5 [2]): 3110 nM
- GI50 (SK-MEL-5 [2]; Homo sapiens): 1720 nM
- CC50 (SK-MEL-5 [2]; [9]): 5620 nM
- TGI (BT-549): 2800 nM
- GI50 (BT-549; Homo sapiens): 1430 nM
- LC50 (concentration giving 50% net cell kill) (BT-549; Homo sapiens): 5490 nM
- TGI (CAKI-1): 2970 nM
- GI50 (CAKI-1; Homo sapiens): 1600 nM
- LC50 (lethal concentration, 50% net cell kill) (CAKI-1; Homo sapiens): 5510 nM
- TGI (SNB-75): 2790 nM
- GI50 (SNB-75; Homo sapiens): 1460 nM
- LC50 (50% lethal concentration) (SNB-75; Homo sapiens): 5330 nM
- TGI (SNB-19): 3160 nM
- GI50 (SNB-19; Homo sapiens): 1680 nM
- CC50 (SNB-19; [9]): 5940 nM
- TGI (TK-10): 3770 nM
- GI50 (TK-10; Homo sapiens): 2300 nM
- LC50 (concentration killing 50% of starting cells) (TK-10; Homo sapiens): 6180 nM
- GP (growth percentage) (MALME-3M): −90.58%
- GP (growth percentage) (SK-MEL-28; 48 h): 8.93%
- inhibition at 10 µM (SK-MEL-28; Homo sapiens): 91.1%
- GP (growth percentage) (UACC-257 [3]): −89.19%
- GP (growth percentage) (SK-MEL-5 [4]): −98.64%
- GP (growth percentage) (UACC-62): −43.31%
- GP (growth percentage) (MDA-MB-435): −83.74%
- GP (growth percentage) (LOX IMVI): −76.37%
- GP (growth percentage) (SK-MEL-2): −49.77%
- GP (growth percentage) (NCI/ADR-RES): −15.63%
- GP (growth percentage) (IGROV1 [5]): −82.43%
- GP (growth percentage) (OVCAR-5): 54.83%
- GP (growth percentage) (OVCAR-8 [6]; 48 h): 1.03%
- inhibition at 10 µM (OVCAR-8 [6]; Homo sapiens): 99%
- GP (growth percentage) (OVCAR-4): −97.52%
- GP (growth percentage) (SK-OV-3): 79.78%
- TGI (OVCAR-8 [7]): 3010 nM
- GI50 (OVCAR-8 [7]; Homo sapiens): 1570 nM
- CC50 (OVCAR-8 [7]; [9]): 5770 nM
- TGI (HOP-92): 3510 nM
- GI50 (HOP-92; Homo sapiens): 2010 nM
- LC50 (50% lethal concentration) (HOP-92; Homo sapiens): 6120 nM
- TGI (IGROV1 [8]; 48 h): 2760 nM
- GI50 (IGROV1 [8]; Homo sapiens, IGROV-1, 48 h): 1360 nM
- LC50 (IGROV1 [8]; Homo sapiens, IGROV-1, 48 h): 5610 nM
- TGI (SF-295): 3430 nM
- GI50 (SF-295; Homo sapiens): 1860 nM
- LC50 (50% lethal concentration) (SF-295; Homo sapiens): 6300 nM
